Measurements as given in patent US20040186077A1, “Novel heteroaryl phosphonates as cardioprotective agents” (Medicure International Inc., priority 2003, published 2004).

Tested on: Male Wistar rats
Assay: Ischemia reperfusion: LAD occlusion and reperfusion, infarct size as percentage of AAR
Assay type: in vivo
Details: 32 mg/kg i.v. bolus 5 min before ischemia; regional myocardial ischemia 25 min, reperfusion 2 h; P=0.047 unpaired t-test; vehicle infarct size 56±3% of the AAR
Procedure: Male Wistar rats (200-300 g, Tuck, Rayleigh, Essex, U.K.) were anesthetised with thiopentone sodium (Intraval®, 120 mg/kg i.p.; Rhone-Merrieux, Essex, U.K.). The rats were tracheotomised, intubated and ventilated with a Harvard ventilator (70 strokes/min, tidal volume: 8-10 mL/kg, inspiratory oxygen concentration: 30%). Body temperature was maintained at 38±1° C. The right carotid artery was cannulated and connected to a pressure transducer (MLT 1050, AD Instruments Ltd, Hastings, UK) to monitor mean arterial blood pressure (MAP) and heart rate (HR), which were continuously recorded on a data acquisition system such as Powerlab® Version 4.0.4, AD Instruments, Hastings, UK. The right jugular vein was cannulated for drug administration and the administration of Evans Blue dye (at the end of the experiment). A lateral thoracotomy was performed and the heart was suspended in a temporary pericardial cradle. A snare occluder was placed around the left anterior descending coronary artery (LAD). After completion of the surgical procedure the animals were allowed to stabilise for 30 min before LAD ligation. Five minutes prior to the onset of myocardial ischemia, a bolus injection (i.v.) of either vehicle or phosphonate was administered. The coronary artery was occluded at time 0 by tightening of the occluder. […]

SMILES: Cc1nc(-c2ccccc2)c(C(F)P(=O)(O)O)c(CO)c1O (stereo not shown) [Compound 38, [Fluoro-(5-hydroxy-4-hydroxymethyl-6-methyl-2-phenyl-pyridin-3-yl)-methyl]-phosphonic acid]
- myocardial infarct size: reduced myocardial infarct size
